# Test results: patent US12358915B2, “METTL3 inhibitory compounds” (STORM THERAPEUTICS LTD., priority 2019, dated 2025)
# Read-outs that look alike come from different tables or passages of the source.
# Assays:
# [1] = test system: MOLM-13 cells; experiment: MOLM13 CTG - analysis of cell proliferation (Cell Titre Glo); assay type: cell-based; details: Homo sapiens, geometric mean, read-out: CTG MOLM13 cells IC50 GEOMEAN
# Description: MOLM-13 or MOLM-14 cells were plated, in suspension, in 24 well tissue culture plates at final concentration of 200,000/ml, with or without 50 ng/ml IFNγ. […] Cells were incubated for 4 days at 37° C. at which point 600 μl of cell suspension was removed for Mass spectrometry analysis of m6A. 600 μl of fresh media containing the appropriate concentration of METTL3 inhibitor/IFNγ was added to remaining cell suspensions. Cells where then cultured for a further 7 days, cell suspension was sampled for analysis of proliferation and Cell surface markers periodically.
# At regular time points (4, 5, 6 &7) days cells were mixed to maintain a homogenous cell suspension. 25 μl of this cell suspension was removed and added to a white 384 well plate, 25 μl of Cell Titre Glo reagent (Promega) was added, and incubated for 10 mins at room temperature before measurement of luminescence intensity, as per the manufacturers instructions.
# [2] = test system: Caov-3 cells; experiment: Caov3 CTG assay - proliferation assay; assay type: cell-based; details: Homo sapiens, 120 hours treatment, 30 μM top concentration, CellTiter-Glo, geometric mean, read-out: CTG Caov3 cells IC50 GEOMEAN
# Description: Upon treatment, Coav-3 cells were incubated for 10 min at RT with the CellTiter-Glo reagent (G7571, Promega). Measurement of the luminescence signal was performed on a microplate reader (Ensight, PerkinElmer).
# [3] = target: T1, METTL3/14 (Homo sapiens, UniProt Q86U44); experiment: METTL3/14 methyltransferase assay (METTL3_14 RFMS, RapidFire mass spectrometry); assay type: biochemical; details: read-out: METTL3_14 RFMS IC50;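 also: recombinant His-tagged METTL3 with FLAG-tagged METTL14 from baculovirus, SAH product quantified by mass spectrometry against isotope-labelled internal standards, 60 min at room temperature, scaled between no-RNA and DMSO-only wells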
# T1 construct: The enzyme used was full-length his-tagged METTL3; His; made in house
# T1 sequence (Q86U44 whole entry): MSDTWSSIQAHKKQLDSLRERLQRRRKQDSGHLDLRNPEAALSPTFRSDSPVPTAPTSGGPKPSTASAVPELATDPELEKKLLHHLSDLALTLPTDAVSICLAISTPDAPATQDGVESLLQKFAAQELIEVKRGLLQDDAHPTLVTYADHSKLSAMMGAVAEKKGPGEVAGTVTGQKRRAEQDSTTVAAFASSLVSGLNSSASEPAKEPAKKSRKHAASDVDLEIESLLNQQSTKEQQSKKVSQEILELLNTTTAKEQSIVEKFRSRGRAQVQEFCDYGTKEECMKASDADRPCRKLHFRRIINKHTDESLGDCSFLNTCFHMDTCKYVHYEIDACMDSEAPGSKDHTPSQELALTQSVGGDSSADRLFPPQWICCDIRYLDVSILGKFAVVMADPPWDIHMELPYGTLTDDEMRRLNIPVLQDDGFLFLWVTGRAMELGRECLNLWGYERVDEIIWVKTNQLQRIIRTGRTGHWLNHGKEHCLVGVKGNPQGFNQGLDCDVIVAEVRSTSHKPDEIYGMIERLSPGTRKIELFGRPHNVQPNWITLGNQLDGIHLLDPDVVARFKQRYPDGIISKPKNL
# T1 sequence (Q9HCE5 whole entry partner): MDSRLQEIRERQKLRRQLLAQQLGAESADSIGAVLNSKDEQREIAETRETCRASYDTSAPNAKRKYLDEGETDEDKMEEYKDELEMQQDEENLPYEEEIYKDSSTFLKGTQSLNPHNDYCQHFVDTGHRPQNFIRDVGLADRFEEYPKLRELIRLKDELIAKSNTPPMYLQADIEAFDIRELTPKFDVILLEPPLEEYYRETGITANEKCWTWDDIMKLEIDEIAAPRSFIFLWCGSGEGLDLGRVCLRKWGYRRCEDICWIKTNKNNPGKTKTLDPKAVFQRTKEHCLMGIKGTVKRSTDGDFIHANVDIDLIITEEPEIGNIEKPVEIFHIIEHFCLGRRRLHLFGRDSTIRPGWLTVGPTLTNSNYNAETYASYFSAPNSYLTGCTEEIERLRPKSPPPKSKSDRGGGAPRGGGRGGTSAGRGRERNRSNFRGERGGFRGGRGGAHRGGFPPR
# [4] = 5 nM METTL3/14, 0.2 μM RNA substrate, 0.5 μM SAM, lower limit of the assay IC50=5 nM, Compounds 266-351
SMILES,IC50 [1] [nM],"IC50 [3, 4] [nM]","IC50 ([3]; 5 nM METTL3/14, 0.2 μM RNA substrate, 0.5 μM SAM, lower limit of the assay IC50=5 nM, Compounds 63-265) [nM]",IC50 [3] [nM],IC50 [2] [nM]
"c1cc(-c2cn(Cc3cn4cc(CNCC5CCC5)ccc4n3)cn2)c2cn[nH]c2c1 [Example 339, N-(cyclobutylmethyl)-1-[2-[[4-(1H-indazol-4-yl)imidazol-1-yl]methyl]imidazo[1,2-a]pyridin-6-yl]methanamine]",3070,10.1,–,–,849
"FC1(F)CC(CNCc2ccc3nc(Cc4cn(-c5cccc6[nH]ncc56)nn4)cn3c2)C1 [Example 337, [(3,3-difluorocyclobutyl)methyl][(2-{[1-(1H-indazol-4-yl)-1H-1,2,3-triazol-4-yl]methyl}imidazo[1,2-a]pyridin-6-yl)methyl]amine]",5170,16.3,–,–,3210
"O=C(NCc1cn2cc(CNCC3CCC3)ccc2n1)c1cc(=O)n2ccccc2n1 [Example 212, N-[[6-[(cyclobutylmethylamino)methyl]imidazo[1,2-a]pyridin-2-yl]methyl]-4-oxo-pyrido[1,2-a]pyrimidine-2-carboxamide]",1820,–,6.25,–,320
"Fc1ccc(-c2cn(Cc3cn4cc(CNCC5CCCCC5)ccc4n3)nn2)c2cn[nH]c12 [Example 307, N-(cyclohexylmethyl)-1-[2-[[4-(7-fluoro-1H-indazol-4-yl)triazol-1-yl]methyl]imidazo[1,2-a]pyridin-6-yl]methanamine]",3680,6.72,–,–,1770
"COc1cc(-c2cn(Cc3cn4cc(CNCC5CCC5)ccc4n3)nn2)c2cn[nH]c2c1 [Example 270, N-(cyclobutylmethyl)-1-[2-[[4-(6-methoxy-1H-indazol-4-yl)triazol-1-yl]methyl]imidazo[1,2-a]pyridin-6-yl]methanamine]",431,–,–,≤ 3.63,161

# Continued by falling IC50 [1], values first:
IC50 [1] [nM],"IC50 [3, 4] [nM]","IC50 ([3]; 5 nM METTL3/14, 0.2 μM RNA substrate, 0.5 μM SAM, lower limit of the assay IC50=5 nM, Compounds 63-265) [nM]",IC50 [3] [nM],SMILES,IC50 [2] [nM]
1390,8.05,–,–,"COc1cc(-c2cn(Cc3cn4cc(CNCC5(O)CCC5)ccc4n3)nn2)c2cn[nH]c2c1 [Example 269, 1-[[[2-[[4-(6-methoxy-1H-indazol-4-yl)triazol-1-yl]methyl]imidazo[1,2-a]pyridin-6-yl]methylamino]methyl]cyclobutanol]",692
1190,7.49,–,–,"N#Cc1cc(-c2cn(Cc3cn4cc(CNCC5CCC5)ccc4n3)nn2)c2cn[nH]c2c1 [Example 338, 4-{1-[(6-{[(cyclobutylmethyl)amino]methyl}imidazo[1,2-a]pyridin-2-yl)methyl]-1H-1,2,3-triazol-4-yl}-1H-indazole-6-carbonitrile]",1110
930,6.1,–,–,"COc1cc(-c2cn(Cc3cn4cc(CNCC5(OC)CCC5)ccc4n3)nn2)c2cn[nH]c2c1 [Example 343, N-[(1-methoxycyclobutyl)methyl]-1-[2-[[4-(6-methoxy-1H-indazol-4-yl)triazol-1-yl]methyl]imidazo[1,2-a]pyridin-6-yl]methanamine]",554
629,–,–,≤ 4.35,"Clc1cc(-c2cn(Cc3cn4cc(CNCC5CCC5)ccc4n3)nn2)c2cn[nH]c2c1 [Example 302, 1-[2-[[4-(6-chloro-1H-indazol-4-yl)triazol-1-yl]methyl]imidazo[1,2-a]pyridin-6-yl]-N-(cyclobutylmethyl)methanamine]",211
